Source: patent publication US20170065564A1, “BIS-CYCLIC GUANIDINE COMPOUND COMPOSITIONS, METHODS OF USE AND TREATMENT THEREOF” (University of South Florida, priority 2014, published 2017)
≈ marks a conversion by molar mass, not a printed value.

Tests used:
K. pneumoniae = assay: Resistance serial passage assay; type: cell-based, Klebsiella pneumoniae; conditions: 8 passages, concentration doubled each day
Experimental: (§1) ESKAPE pathogens were grown overnight in liquid media at 37° C. These cultures were then diluted 1:100 in fresh media, and seeded into a 96-well plate. Lead bis-cyclic guanidines or control agents were added to respective wells at half MIC concentrations. Plates were then incubated for 24 hours at 37° C., with bacteria removed from these cultures on the following day, to inoculate fresh media (1:100 dilution) containing compounds at a 2-fold higher concentrations. These were then grown overnight, and the procedure repeated for a total of eight days. […] Each experiment was performed in triplicate, yielding identical results.

[1] = test system: Staphylococcus aureus (USA300 strain FPR3757); assay: Murine model of lethal peritonitis; type: in vivo, mice; conditions: 2× MIC, I.M., 1 h post-infection, six mice per group
Experimental: Using MRSA as a representative ESKAPE organism, we infected mice with 1×10^8 bacterial cells in 5% mucin via intraperitoneal injection. At 1 h post-infection, mice were then I.V. injected with either vancomycin (positive control), or I.M. with our front runner compounds.
Six mice per group were injected with 1×10^8 CFU ml^−1 of Staphylococcus aureus (USA300 strain FPR3757) in PBS containing 5% mucin. […] Mice were monitored twice daily for five days to assess mortality. The clinical endpoint of this study was when the mice reached a pre-moribund state. Characteristics of pre-moribund state include: hunched posture, rapid, shallow and/or labored breathing, ruffled fur, lethargy, failure to respond to stimuli, soiled anogenital area, paralysis, paresis, head tilt, circling, vocalizations, non-purposeful movements and/or were unable to eat or drink. Those mice reaching this state prior to the completion of the 5 day infection period were euthanized. The number of mice surviving between control and treatment groups was compared and analyzed for statistical significance using a log rank test.

Enterobacter cloacae = assay: MIC micro broth dilution assay; type: cell-based; parameters: key to stacked score activity, 100/MIC, E: stacked score = 100/MIC
Outline: (§2)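 Multidrug-resistant clinical ESKAPE isolates were grown overnight (Gram-positives in TSB, Gram-negatives in LB), diluted 1:1,000 and exposed to decreasing compound concentrations in DMF (≤2.0% DMF).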

Enterococcus faecium = assay: MIC micro broth dilution assay; type: cell-based; parameters: key to stacked score activity, 100/MIC, E: stacked score = 100/MIC
Outline: as §2

Pseudomonas aeruginosa = assay: MIC micro broth dilution assay; type: cell-based
Experimental: For this study we used a representative panel of multi-drug resistant clinical ESKAPE pathogen isolates (Supplemental Table S6).^42 43 3a, 44 45 Gram-positive organisms were grown in tryptic soy broth media (TSB), whilst Gram-negative organisms were grown in lysogeny Broth (LB), as described by us previously. ^43 MIC and MBC determination assays.
Broth cultures of ESKAPE strains were grown overnight before being diluted 1 in 1,000 in fresh media. Sterile 96-well plates were loaded with culture and compounds (in DMF) were added at decreasing concentrations to equal a total volume of 200 μl per well. Care was taken to not add more than 2.0% DMF to any well. Plates were then incubated at 37° C., and MICs determined after 24 hours by visual inspection for a lack of turbidity in wells. All assays were performed in triplicate with identical results obtained. For both the scaffold ranking and positional scanning samples, relative broad-spectrum activity was determined via stacked scores: […]

Staphylococcus aureus = assay: MIC micro broth dilution assay; type: cell-based; parameters: key to stacked score activity, 100/MIC, S: stacked score = 100/MIC
Outline: as §2

A. baumannii = assay: Resistance serial passage assay; type: cell-based, Acinetobacter baumannii; conditions: 8 passages, concentration doubled each day
Experimental: as §1

[2] = test system: Enterobacter cloacae biofilm; assay: Minimum biofilm eradication concentration (MBEC) assay; type: cell-based; conditions: 24 h biofilm, purified compound
Experimental: (§3) The minimum biofilm eradication concentration (MBEC) was determined in 96-well microtiter plates as follows. Broth cultures of ESKAPE strains were grown using the conditions described above. Biofilms for each of the ESKAPE pathogens were generated from these as we have previously described for S. aureus, however human serum was not used for non-staphylococcal organisms.^44 46 For all organisms, biofilms were developed by standardizing an overnight culture into fresh media to an OD600 of 0.5 and adding 150 μl into each well of a 96-well microtiter plate. […] These cultures were incubated at 37° C. overnight alongside no drug controls. After 24 hours, the media was removed from wells and the biofilm resuspended in phosphate buffered saline (PBS). Cultures were mixed by vigorous pipetting, before being serially diluted in PBS, and plated in duplicate on relevant agar. Plates were incubated at 37° C. for 24 hours, and CFUs determined by enumeration. Each analysis was performed using three technical replicates, and antibiofilm activity was determined by comparing treated to untreated samples.

[3] = test system: Acinetobacter baumannii biofilm; assay: as above; type: cell-based; conditions: 24 h biofilm, purified compound
Experimental: as §3

[4] = test system: Enterococcus faecium biofilm; assay: as above; type: cell-based; conditions: 24 h biofilm, purified compound
Experimental: as §3

[5] = panel of E. cloacae clinical isolates

## CCCCCCCN1C(=N)N(CCCC[C@H]2CNC(=N)N2CCC23CC4CC(CC(C4)C2)C3)C[C@@H]1CCCC [Compound 19]
K. pneumoniae
  increase in MIC after serial passage: 8 fold
[1]
  survival of infected mice over 5 day infection period: only a single mouse succumbing to infection after the first day
Enterobacter cloacae; E. cloacae
  stacked score activity, 100/MIC, E: 20
Enterobacter cloacae; E. cloacae isolate 1404
  MIC: 2.0 µM (≈ 1.08 µg/mL)
Enterobacter cloacae; E. cloacae isolate 1405
  MIC: 2.0 µM (≈ 1.08 µg/mL)
Enterobacter cloacae; E. cloacae isolate 1430
  MIC: 3.0 µM (≈ 1.62 µg/mL)
Enterobacter cloacae; E. cloacae isolate 1431
  MIC: 2.0 µM (≈ 1.08 µg/mL)
Enterobacter cloacae; E. cloacae isolate 1445
  MIC: 3.0 µM (≈ 1.62 µg/mL)
Enterobacter cloacae; E. cloacae isolate 1446
  MIC: 5.0 µM (≈ 2.7 µg/mL)
Enterobacter cloacae; E. cloacae isolate 1447
  MIC: 2.0 µM (≈ 1.08 µg/mL)
Enterobacter cloacae; E. cloacae isolate 1448
  MIC: 2.0 µM (≈ 1.08 µg/mL)
Enterobacter cloacae; E. cloacae isolate 1454
  MIC: 2.0 µM (≈ 1.08 µg/mL)
Enterobacter cloacae; E. cloacae isolate 1455
  MIC: 2.0 µM (≈ 1.08 µg/mL)
Enterobacter cloacae; [5]
  concentration inhibiting 70% of strains: 2 µM
  concentration inhibiting 90% of isolates: 5 µM
Enterobacter cloacae; purified compound, Table 1
  MIC: 1.66 µM (≈ 0.898 µg/mL)
Enterococcus faecium; E. faecium
  stacked score activity, 100/MIC, E: 33
Enterococcus faecium; E. faecium isolate 1406
  MIC: 2.0 µM (≈ 1.08 µg/mL)
Enterococcus faecium; E. faecium isolate 1407
  MIC: 2.0 µM (≈ 1.08 µg/mL)
Enterococcus faecium; E. faecium isolate 1432
  MIC: 2.0 µM (≈ 1.08 µg/mL)
Enterococcus faecium; E. faecium isolate 1438
  MIC: 2.0 µM (≈ 1.08 µg/mL)
Enterococcus faecium; E. faecium isolate 1439
  MIC: 2.0 µM (≈ 1.08 µg/mL)
Enterococcus faecium; E. faecium isolate 1443
  MIC: 2.0 µM (≈ 1.08 µg/mL)
Enterococcus faecium; E. faecium isolate 1444
  MIC: 2.0 µM (≈ 1.08 µg/mL)
Enterococcus faecium; E. faecium isolate 1449
  MIC: 2.0 µM (≈ 1.08 µg/mL)
Enterococcus faecium; E. faecium isolate 1450
  MIC: 2.0 µM (≈ 1.08 µg/mL)
Enterococcus faecium; E. faecium isolate 1451
  MIC: 2.0 µM (≈ 1.08 µg/mL)
Enterococcus faecium; purified compound, Table 1
  MIC: 1.66 µM (≈ 0.898 µg/mL)
Pseudomonas aeruginosa; P. aeruginosa isolate 1414
  MIC: 5.0 µM (≈ 2.7 µg/mL)
Pseudomonas aeruginosa; P. aeruginosa isolate 1415
  MIC: 5.0 µM (≈ 2.7 µg/mL)
Pseudomonas aeruginosa; P. aeruginosa isolate 1416
  MIC: 3.0 µM (≈ 1.62 µg/mL)
Pseudomonas aeruginosa; P. aeruginosa isolate 1417
  MIC: 3.0 µM (≈ 1.62 µg/mL)
Pseudomonas aeruginosa; P. aeruginosa isolate 1418
  MIC: 7.0 µM (≈ 3.79 µg/mL)
Pseudomonas aeruginosa; P. aeruginosa isolate 1419
  MIC: 3.0 µM (≈ 1.62 µg/mL)
Pseudomonas aeruginosa; P. aeruginosa isolate 1420
  MIC: 5.0 µM (≈ 2.7 µg/mL)
Pseudomonas aeruginosa; P. aeruginosa isolate 1421
  MIC: 5.0 µM (≈ 2.7 µg/mL)
Pseudomonas aeruginosa; P. aeruginosa isolate 1422
  MIC: 5.0 µM (≈ 2.7 µg/mL)
Pseudomonas aeruginosa; P. aeruginosa isolate 1423
  MIC: 2.0 µM (≈ 1.08 µg/mL)
Pseudomonas aeruginosa; panel of P. aeruginosa clinical isolates
  concentration inhibiting 90% of isolates: 10 µM
Pseudomonas aeruginosa; purified compound, Table 1
  MIC: 1.66 µM (≈ 0.898 µg/mL)
Staphylococcus aureus; S. aureus
  stacked score activity, 100/MIC, S: 33
Staphylococcus aureus; S. aureus isolate 542
  MIC: 2.0 µM (≈ 1.08 µg/mL)
Staphylococcus aureus; S. aureus isolate 626
  MIC: 2.0 µM (≈ 1.08 µg/mL)
Staphylococcus aureus; S. aureus isolate 635
  MIC: 2.0 µM (≈ 1.08 µg/mL)
Staphylococcus aureus; S. aureus isolate 648
  MIC: 2.0 µM (≈ 1.08 µg/mL)
Staphylococcus aureus; S. aureus isolate 690
  MIC: 2.0 µM (≈ 1.08 µg/mL)
Staphylococcus aureus; S. aureus isolate 693
  MIC: 2.0 µM (≈ 1.08 µg/mL)
Staphylococcus aureus; S. aureus isolate 715
  MIC: 2.0 µM (≈ 1.08 µg/mL)
Staphylococcus aureus; S. aureus isolate 728
  MIC: 2.0 µM (≈ 1.08 µg/mL)
Staphylococcus aureus; S. aureus isolate 834
  MIC: 2.0 µM (≈ 1.08 µg/mL)
Staphylococcus aureus; S. aureus isolate 1043
  MIC: 2.0 µM (≈ 1.08 µg/mL)
Staphylococcus aureus; S. aureus isolate 1049
  MIC: 2.0 µM (≈ 1.08 µg/mL)
Staphylococcus aureus; purified compound, Table 1
  MIC: 1.66 µM (≈ 0.898 µg/mL)
A. baumannii
  increase in MIC after serial passage: 8 fold
[2]
  MBEC50: 15.14 µM
[3]
  MBEC50: 24.07 µM
[4]
  MBEC50: 13.27 µM
